Reference: article PMC7145527 (2019)

Columns and labels:
[1] = system: wt Chili RNA aptamer (RNA, aptamer) GGCUAGCUGGAGGGGCGCCAGUUCGCUGGUGGUUGGGUGCGGUCGGCUAGCC; experiment: fluorescence activation
[2] = system: wt Chili RNA aptamer (RNA, aptamer) GGCUAGCUGGAGGGGCGCCAGUUCGCUGGUGGUUGGGUGCGGUCGGCUAGCC; experiment: imino 1H NMR; conditions: K+ 50 mM, Mg2+ 1 mM; 25 mM KPi pH 7.4; 20 µM RNA, 20 µM dye
[3] = system: Chili C44U (RNA, aptamer) GGCUAGCUGGAGGGGCGCCAGUUCGCUGGUGGUUGGGUGCGGUUGGCUAGCC; experiment: fluorescence activation; conditions: K+ 125 mM, Mg2+ 5 mM; HEPES pH 7.5; I540 122.6 versus wt 200.2
[4] = system: Chili C16U (RNA, aptamer) GGCUAGCUGGAGGGGUGCCAGUUCGCUGGUGGUUGGGUGCGGUCGGCUAGCC; experiment: fluorescence activation; conditions: K+ 125 mM, Mg2+ 5 mM; HEPES pH 7.5; inferred from absent fluorescence; 0.5 µM RNA and dye
[5] = system: Chili C40U (RNA, aptamer) GGCUAGCUGGAGGGGCGCCAGUUCGCUGGUGGUUGGGUGUGGUCGGCUAGCC; experiment: fluorescence activation; conditions: K+ 125 mM, Mg2+ 5 mM; HEPES pH 7.5; I540 156.1 versus wt 200.2
[6] = system: Chili C16U/G31A (RNA, aptamer) GGCUAGCUGGAGGGGUGCCAGUUCGCUGGUAGUUGGGUGCGGUCGGCUAGCC; experiment: fluorescence activation; conditions: K+ 125 mM, Mg2+ 5 mM; HEPES pH 7.5; inferred from absent fluorescence; 0.5 µM RNA and dye
[7] = system: Chili G36A (RNA, aptamer) GGCUAGCUGGAGGGGCGCCAGUUCGCUGGUGGUUGAGUGCGGUCGGCUAGCC; experiment: fluorescence activation; conditions: K+ 125 mM, Mg2+ 5 mM, HEPES pH 7.5
[8] = system: Chili G31A (RNA, aptamer) GGCUAGCUGGAGGGGCGCCAGUUCGCUGGUAGUUGGGUGCGGUCGGCUAGCC; experiment: fluorescence activation; conditions: K+ 125 mM, Mg2+ 5 mM; HEPES pH 7.5; inferred from absent fluorescence; 0.5 µM RNA and dye
[9] = system: wt Chili RNA aptamer (RNA, aptamer) GGCUAGCUGGAGGGGCGCCAGUUCGCUGGUGGUUGGGUGCGGUCGGCUAGCC; experiment: isothermal titration calorimetry; conditions: K+ 125 mM, Mg2+ 5 mM; HEPES pH 7.5, 25 °C
[10] = system: Chili U38C (RNA, aptamer) GGCUAGCUGGAGGGGCGCCAGUUCGCUGGUGGUUGGGCGCGGUCGGCUAGCC; experiment: fluorescence activation; conditions: K+ 125 mM, Mg2+ 5 mM; HEPES pH 7.5; I540 129.3 versus wt 200.2
[11] = system: Chili G35A (RNA, aptamer) GGCUAGCUGGAGGGGCGCCAGUUCGCUGGUGGUUAGGUGCGGUCGGCUAGCC; experiment: fluorescence activation; conditions: K+ 125 mM, Mg2+ 5 mM, HEPES pH 7.5
[12] = system: Chili U34C (RNA, aptamer) GGCUAGCUGGAGGGGCGCCAGUUCGCUGGUGGUCGGGUGCGGUCGGCUAGCC; experiment: fluorescence activation; conditions: K+ 125 mM, Mg2+ 5 mM; HEPES pH 7.5; I540 203.1 versus wt 200.2
[13] = system: wt Chili RNA aptamer (RNA, aptamer) GGCUAGCUGGAGGGGCGCCAGUUCGCUGGUGGUUGGGUGCGGUCGGCUAGCC; experiment: fluorescence titration; conditions: K+ 125 mM, Mg2+ 5 mM, HEPES pH 7.5, incubated at 4 °C 16 h
[14] = system: wt Chili RNA aptamer (RNA, aptamer) GGCUAGCUGGAGGGGCGCCAGUUCGCUGGUGGUUGGGUGCGGUCGGCUAGCC; experiment: fluorescence activation kinetics; conditions: K+ 125 mM, Mg2+ 5 mM; 40 mM HEPES pH 7.5, 25 °C; 0.025 µM RNA
[15] = system: wt Chili RNA aptamer (RNA, aptamer) GGCUAGCUGGAGGGGCGCCAGUUCGCUGGUGGUUGGGUGCGGUCGGCUAGCC; experiment: fluorescence competition; conditions: K+ 125 mM, Mg2+ 5 mM; 40 mM HEPES pH 7.5; competes with DMHBAI; up to 5 µM (tenfold excess)
[16] = K+ 125 mM, Mg2+ 5 mM, 80 mM HEPES pH 7.5, 0.5 µM RNA, 0.5 µM dye
[17] = weaker fluorescence than parent Chili

Structure (SMILES): CCN1C(=O)/C(=C/c2cc(OC)c(O)c(OC)c2)N=C1C
- binding [1, 16]: yes

Structure (SMILES): CN1C(=Cc2cc[n+](C)c3ccccc23)Sc2ccccc21
- binding [1]: yes

Structure (SMILES): COc1cc(/C=C2N=C(/C=C/c3c[nH]c4ccccc34)N(C)C\2=O)cc(OC)c1O
- binding [1, 16]: yes

Structure (SMILES): COc1cc(/C=C2N=C(/C=C/c3c[nH]c4ccccc34)N(c3ccc(C)cc3)C\2=O)cc(OC)c1O
- binding [1, 16]: yes

Structure (SMILES): COc1cc(/C=C2N=C(/C=C/c3c[nH]cn3)N(C)C\2=O)cc(OC)c1O
- binding [1, 16]: yes

Structure (SMILES): COc1cc(/C=C2N=C(/C=C/c3ccccc3)N(C)C\2=O)cc(OC)c1O
- binding [2]: yes

Structure (SMILES): COc1cc(/C=C2N=C(/C=C/c3ccccc3)N(c3ccc([N+](C)(C)C)cc3)C\2=O)cc(OC)c1O
- binding [1, 16]: yes

Structure (SMILES): COc1cc(/C=C2N=C(/C=C/c3ccncc3)N(C)C\2=O)cc(OC)c1O
- binding [2]: yes

Structure (SMILES): COc1cc(/C=C2\N=C(C)N(C)C2=O)cc(Br)c1O
- binding [1, 16]: yes

Structure (SMILES): COc1cc(/C=C2\N=C(C)N(C)C2=O)cc(OC)c1O
- binding [3]: yes
- binding [4]: no
- binding [5]: yes
- binding [6]: no
- binding ([7]; I540 192.9 versus wt 200.2): yes
- binding [8]: no
- KD [9]: 371 ± 55 nM
- binding [10]: yes
- binding ([11]; I540 138.2 versus wt 200.2): yes
- binding [12]: yes

Structure (SMILES): COc1cc(/C=C2\N=C(C)N([C@H]3CC[C@H](C)CC3)C2=O)cc(OC)c1O
- binding [1, 16]: yes

Structure (SMILES): COc1cc(/C=C2\N=C(C)N(c3ccc(C)cc3)C2=O)cc(OC)c1O
- KD ([13]; Figure S6 legend instead prints 0.377±0.024 µM): 151 ± 21 nM

Structure (SMILES): COc1cc(/C=C2\N=C(C)N(c3ccc([N+](C)(C)C)cc3)C2=O)cc(OC)c1O
- binding [4]: no
- binding [6]: no
- binding [7, 17]: yes
- binding [8]: no
- KD [9]: 24.1 ± 5.6 nM
- binding [11, 17]: yes
- kon [14]: 82000 M⁻¹ s⁻¹

Structure (SMILES): COc1cc(/C=C2\N=C(C)N(c3ccccc3)C2=O)cc(OC)c1O
- binding [1, 16]: yes

Structure (SMILES): COc1cc(/C=C2\N=C(C=NO)N(c3ccc([N+](C)(C)C)cc3)C2=O)cc(OC)c1O
- kon [14]: 65000 M⁻¹ s⁻¹

Structure (SMILES): COc1ccc(N2C(=O)/C(=C/c3cc(OC)c(O)c(OC)c3)N=C2C)cc1
- KD ([13]; dye 0.1 µM): 65 ± 7 nM

Structure (SMILES): COc1ccc(N2C(=O)/C(=C/c3cc(OC)cc(OC)c3)N=C2C)cc1
- binding [15]: no

Structure (SMILES): COc1ccc(N2C(=O)/C(=C/c3ccc(O)c(OC)c3)N=C2C)cc1
- binding [1, 16]: yes

Structure (SMILES): Cc1ccc2c(c1)sc(-c1ccc(N(C)C)cc1)[n+]2C
- binding [1]: yes
